From paper PMC9974488, “Probing coenzyme A homeostasis with semisynthetic biosensors” (Nature Chemical Biology, 2022) come the findings set out here.

The target of test [1] is T1, pantothenate kinase (ecPanK) (Escherichia coli, UniProt P0A6I3, D127A/F252Y/L277W).
T1 construct: gene coaA; ecPanK D127A,F252Y,L277W
The test is described as follows: fluorescence polarization. In kind it is binding. For orientation: In fluorescence polarisation assays a small probe gives low polarisation when free and higher when bound to something large.

The target of test [2] is T2, pantothenate kinase (ecPanK) (Escherichia coli, UniProt P0A6I3).
T2 construct: gene coaA; ecPanK WT, N-terminal Strep-tag, C-terminal Hisx10
T2 sequence (P0A6I3 1-316): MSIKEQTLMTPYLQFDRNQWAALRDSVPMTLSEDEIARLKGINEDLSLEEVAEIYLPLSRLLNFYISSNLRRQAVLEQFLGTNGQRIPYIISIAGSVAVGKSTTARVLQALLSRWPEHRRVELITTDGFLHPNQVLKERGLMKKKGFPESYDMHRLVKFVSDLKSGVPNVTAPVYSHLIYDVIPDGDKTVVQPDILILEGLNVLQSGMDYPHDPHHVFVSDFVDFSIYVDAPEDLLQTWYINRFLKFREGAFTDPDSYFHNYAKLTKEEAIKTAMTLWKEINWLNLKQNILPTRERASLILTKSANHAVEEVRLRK
The test is described as follows: fluorescence polarization, purified protein titrated against […] TMR-TAZ. Format: binding.

The target in test [3] is T2, pantothenate kinase (ecPanK). Put plainly: fluorescence polarization competition against TMR-TAZ. Format: binding.
Test [4] has the same target. The test is described as follows: biochemical. Further details: fluorescence polarization competition against 50 nM TMR-TAZ with 20 uM ecPanK, half-maximal c50. The method, then: The binding affinity (c50) of different ecPanKs for CoA and AcCoA were determined by a fluorescence polarization competition assay against TMR-TAZ. 50 nM TMR-TAZ and 20 μM ecPanKs, except ecPanK^D127A,F252Y,L277W (100 μM), were titrated against CoA or AcCoA concentrations ranging from 64 nM to 5 mM in PBS supplemented with 0.5 mg ml^−1 BSA and 50 mM HEPES. Assays were performed in non-binding black 96-well plates with a final volume of 50 μl with excitation at 520 nm (bandwidth 20 nm) and emission 600 nm (bandwidth 20 nm). Obtained FP values were averaged and fitted to equation (4) to estimate the c50 values using OriginPro 2021.4 FP=FP0+FPs−FP0/1+c50/[L] Where FP0 is the fluorescence polarization of the fluorophore with ecPanKs in the absence of CoA or AcCoA (bound fluorophore), FPs is the fluorescence polarization of the fluorophore in the presence of CoA or AcCoA (free fluorophore) c50 is the half-maximal effective concentration, and [L] is the concentration of CoA or AcCoA. […] Representative in-gel fluorescence scan after SDS-PAGE (n = 3 independent experiments) of Halo-SiR labeled sensor proteins, Lane 1: protein marker, lane 2: CoA-Snifit^V97T, lane 3: CoA-Snifit^G41, lane 4: CoA-Snifit^G41S, lane 5: CoA-Snifit^G41N. c. […] Fluorescence polarization responses (FP, mean ± s.d., n = 3 independent replicates) of 50 nM TMR-TAZ as a function of ecPanK^WT concentration in PBS. e. […]

By Kd is commonly meant the equilibrium constant for the complex coming apart. Low readings indicate higher affinity, high ones lower affinity. Consider `CC(NC(=O)c1ccccc1C(F)(F)F)c1nnc(SCc2ccc(F)cc2)n1Cc1ccc(COC(=O)NCCOCCOCCNC(=O)c2ccc(C(=O)O)c(-c3c4ccc(=[N+](C)C)cc-4oc4cc(N(C)C)ccc34)c2)nc1` (centres unmarked) [compound 1, TMR-TAZ], for which the Kd was found to be 21.6 ± 3.7 µM in test [1] and 1.2 ± 0.2 µM in test [2]. As usually defined, the IC50 is the midpoint of a concentration-inhibition curve. A higher IC50 goes with lower potency. `CC(C)(COP(=O)(O)OP(=O)(O)OC[C@H]1O[C@@H](n2cnc3c(N)ncnc32)[C@H](O)[C@@H]1OP(=O)(O)O)[C@@H](O)C(=O)NCCC(=O)NCCS` [Coenzyme A]: in test [3], the “fluorescence polarization competition against TMR-TAZ” value was “CoA competes with TMR-TAZ for binding to ecPanK (Extended Data Fig. 1e)”. This compound also yielded an IC50 in test [4] of 214 ± 19.2 µM.

In test [4], `CC(=O)SCCNC(=O)CCNC(=O)[C@H](O)C(C)(C)COP(=O)(O)OP(=O)(O)OC[C@H]1O[C@@H](n2cnc3c(N)ncnc32)[C@H](O)[C@@H]1OP(=O)(O)O` [acetyl-CoA] came in with an IC50 of 1420 ± 315 µM.
